Measurements reported in PubChem BioAssay (NCI).
Where “and” joins values, the source holds several entries; their conditions need not be identical. Identical values can stand only once.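 Following 48 hours of exposure in 96-well plates, responses at five concentrations were used to interpolate endpoints linearly. GI50 = concentration required for 50% inhibition of growth. TGI denotes the concentration required for complete inhibition of growth.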

Experiments:
Assay in all cases: NCI tumour cell line growth inhibition, 48 h
OVCAR-3 ovarian = test system: OVCAR-3 ovarian
SF-295 CNS = test system: SF-295 CNS
UO-31 renal = test system: UO-31 renal
786-0 renal = test system: 786-0 renal
HS 578T breast = test system: HS 578T breast
SK-OV-3 ovarian = test system: SK-OV-3 ovarian
MCF7 breast = test system: MCF7 breast
HCC-2998 colon = test system: HCC-2998 colon

Structure (SMILES)	GI50 (OVCAR-3 ovarian)	TGI (OVCAR-3 ovarian) [µM]	GI50 (SF-295 CNS) [µM]	TGI (SF-295 CNS) [µM]	GI50 (UO-31 renal)	TGI (UO-31 renal) [µM]	GI50 (786-0 renal) [µM]	TGI (786-0 renal) [µM]	GI50 (HS 578T breast)	TGI (HS 578T breast) [µM]	GI50 (SK-OV-3 ovarian)	TGI (SK-OV-3 ovarian) [µM]	GI50 (MCF7 breast)	TGI (MCF7 breast) [µM]	GI50 (HCC-2998 colon)	TGI (HCC-2998 colon) [µM]
COc1cc(C2c3cc4c(cc3C(OC(=O)C[n+]3ccccc3)C3COC(=O)C23)OCO4)cc(OC)c1OC (stereo not drawn)	< 0.016 µM	< 0.0255	< 0.0164	> 100	< 0.0231 µM	> 100	< 0.0183	> 100	< 0.0241 µM	> 100	< 0.0207 µM	> 100	< 0.014 µM	> 100	< 0.0174 µM	> 20.9
C#CCN(c1ccc(C(=O)N[C@@H](CCC(=O)N[C@H](CCC(=O)O)C(=O)O)C(=O)O)cc1)C1CCc2cc3nc(CO)[nH]c(=O)c3cc21 (stereo partly drawn)	> 100 µM	> 100	5.01	> 72.3	3.74 µM	> 100	4.96	> 100	> 100 µM	> 100	> 53.4 µM	> 100	0.899 µM	> 100	1.32 µM	> 100
CC[C@@H](C)/C=C(C)/C=C/C(=O)c1c(O)c(-c2ccc(O)cc2)cn(O)c1=O	0.395 µM	13	0.703	9.99	0.266 µM	3.68	0.361	5.17	2.83 µM	34.5	0.642 µM	21.7	0.365 µM	16.5	2.31 µM	13.1
CC(C)COc1nc2c(c(=O)n(C)c(=O)n2C)n1C	> 100 µM	> 100	> 100	> 100	> 100 µM	> 100	> 100	> 100	64.1 µM	> 100	> 100 µM	> 100	> 100 µM	> 100	> 100 µM	> 100
COc1cc(C(=O)c2cnc(-c3cccc4[nH]ccc34)[nH]2)cc(OC)c1OC	0.0366 µM and < 0.01 µM	–	< 0.01	> 100	< 0.01 µM	21	–	> 100	–	> 100	0.0542 µM and < 0.01 µM	< 0.01	0.059 µM and < 0.01 µM	> 100	–	59.3
CO[C@H]1CC(O[C@@H]2/C(C)=C/C[C@@H]3C[C@@H](C[C@]4(CC[C@H](C)[C@@H](C5CCCCC5)O4)O3)OC(=O)[C@@H]3C=C(C)/C(=N/O)[C@H]4OC/C(=C\C=C\[C@@H]2C)[C@]43O)O[C@@H](C)C1O (stereo partly drawn)	0.864 µM	1.62	0.888	1.87	0.769 µM	1.98	1.14	2.62	1.22 µM	5.52	1.17 µM	2.86	0.972 µM	2.46	0.831 µM	1.57
Cc1cc(Nc2nc(N[C@@H](C)c3ncc(F)cn3)ncc2Cl)n[nH]1	59.1 µM	> 100	35.6	> 100	24.6 µM	> 100	23.6	> 100	15.9 µM	> 71.8	22.6 µM	> 100	8.71 µM	> 100	38.7 µM	> 100
Clc1ccccc1-c1nnc2c(Cc3ccccc3)nc3ccccc3n12	22.8 µM	> 100	8.12	> 100	> 50 µM	> 100	12.5	98.3	9.04 µM	> 100	22.5 µM	> 100	34 µM	> 100	59.9 µM	> 100
Cc1cc(-c2cc(O)ccc2Cl)cc2nnc(Nc3ccc(OCCN4CCCC4)cc3)nc12	1.59 µM	3.12	1.7	3.32	1.3 µM	2.73	0.186	0.343	1.54 µM	3.83	1.3 µM	2.8	0.179 µM	0.356	1.94 µM	3.66
COC(=O)c1oc2c(C(=O)/C=C/c3ccc(OC)cc3)c(OCCN(C)C)ccc2c1C	7.19 µM	21.3	14.2	29.3	5.14 µM	18.2	9.4	22.3	6.27 µM	22.4	5.14 µM	17.8	2.98 µM	9.89	10.2 µM	24.6
CCN(Cc1cccc(Cl)c1)c1ccc(CO)c(Cl)c1	0.835 µM	5.29	1.12	13.8	3.55 µM	17.6	5.96	20.9	13.6 µM	37.5	5.62 µM	18.2	0.329 µM	11.4	11.3 µM	24.8
CCCCCC/C=C\CCCCCCCCCC1=C(CN2CCN(C)CC2)C(=O)C=C(OC)C1=O	–	17.3	–	25.3	–	9.2	–	2.9	–	24.5	–	25.9	–	11.6	–	23.8
C/C(=C(\c1ccc(OCCN2CCCCCC2)cc1)c1ccc(OC(=O)c2ccccc2)cc1)c1ccc(Cl)cc1	4.06 µM	8.49	2.71	7.44	1.61 µM	6.17	3.58	7.73	3.04 µM	9.76	4.41 µM	9.52	0.348 µM	5.94	2.36 µM	7.03
CC(=O)c1cc(C(=O)c2ccc3c(c2)Sc2ccccc2N3)n2ccccc12	0.00365 µM	–	0.00284	0.076	0.00579 µM and 0.00332 µM	> 33.2	0.00459	–	0.00375 µM and 0.00332 µM	> 33.2	0.00438 µM and 0.00332 µM	21.5	0.00344 µM and 0.00332 µM	> 33.2	0.0199 µM and 0.0295 µM	> 33.2
C=CCC(N[C@H](CO)c1ccccc1)c1cn(Cc2ccccc2Cl)c(=O)n(Cc2ccccc2Cl)c1=O (stereo partly drawn)	8.8 µM	43.8	8.13	48	6.89 µM	> 100	12.7	64.1	26 µM	> 100	63.8 µM	> 100	16.4 µM	68.7	10.7 µM	27.3
CC(=O)C1=C(O)C=C2Oc3c(C(=O)/C=C/c4cc(Cl)cc(Cl)c4)c(O)c(C)c(O)c3[C@]2(C)C1=O	0.417 µM	1.23	0.36	0.887	0.392 µM	1.03	0.534	2.32	0.641 µM	3.89	0.449 µM	1.33	0.458 µM	1.72	0.667 µM	2.69
Cn1cc(-c2cnn3c(N)c(Br)c(C4CCCNC4)nc23)cn1 (stereo not drawn)	16 µM	> 88.9	0.527	> 44.4	4.63 µM	> 78.3	1.62	60.6	4 µM	> 72.3	4.06 µM	66.8	13.7 µM	> 68.6	1.02 µM	> 42.6
CC(=O)NNc1nc(C)c(C(/C=C/c2ccccc2O)=N/N=C(N)N)s1	–	> 100	–	> 100	–	> 100	–	> 100	–	> 100	–	> 100	–	> 100	–	> 100
Cc1cc(Nc2cc(N3CCN(C)CC3)nc(/C=C/c3ccccc3)n2)n[nH]1	1.2 µM	> 10	0.707	> 4.64	0.263 µM	2.7	0.789	> 6.25	0.517 µM	1.86	1.35 µM	> 10	0.235 µM	> 7.88	0.839 µM	4.42
N#Cc1cnc(Nc2cc(NC[C@H]3CNCCO3)c(C(F)(F)F)cn2)cn1	13.3 µM	48.3	0.525	> 100	5.49 µM	69.2	0.668	29	0.882 µM	60.3	3.62 µM	38.9	0.639 µM	23	6.84 µM	30.2
COC(=O)c1cc2c3ccccc3n3c2c(n1)-c1[nH]c2ccccc2c(=O)c1C3	> 100 µM	> 100	32	> 100	> 100 µM	> 100	16.8	60.3	15.4 µM	> 100	19.6 µM	> 100	15.6 µM	> 100	> 100 µM	> 100
COc1cccc(Nc2nc3ccccc3c3occc23)c1	9.1 µM	21.2	3.92	14.6	6.98 µM	27.6	10.7	23.7	9.07 µM	29.7	8.48 µM	22.7	43.7 µM	> 100	8.9 µM	21.8
O=C1C=CC(=O)c2c(O)c3c(c(O)c21)C[C@H](O)[C@H](O)[C@@H]3O	–	3.88	–	20.3	–	> 24	–	4.06	–	7.87	–	33	–	3.49	–	21.3
CCCCCCCCCCCCOC1C(CNC(=O)C2OC3OC(C)(C)OC3C2NC(=O)CN2CCN(c3ccc(OC)cc3)CC2)OC2OC(C)(C)OC21 (stereo not drawn)	4.01 µM	14.5	5.12	18.4	3.36 µM	13.4	11.8	24	3.78 µM	17	5.87 µM	17.7	2.81 µM	8.29	3.4 µM	11
CC1(C)CCCC(C)(C2CCC3(C)C2C(O)CC2C4(C)CCC(O)C(C)(C)C4CCC23C)O1 (stereo not drawn)	–	–	–	> 100	–	> 100	–	> 100	–	89.1	–	> 100	–	> 100	–	> 100
CCOc1ccn(-c2ccc(F)cc2)c(=O)c1C(=O)Nc1ccc(Oc2ccnc(N)c2Cl)c(F)c1	24.3 µM	> 100	0.787	48.3	8.99 µM	63.4	19	> 100	3.7 µM	30.6	11.7 µM	41.6	7.89 µM	> 100	38.5 µM	> 100
Cc1cn(Cc2ccc(C34CC5CC(CC(C5)C3)C4)c(O)c2)c(=O)[nH]c1=O	4.04 µM	16.3	4.56	18.5	11.6 µM	23.8	12.6	27	8.42 µM	33.8	19.2 µM	44.3	7.96 µM	72.9	9.45 µM	21.4
CC1=CC(C)(C)NN1C1=NS(=O)(=O)c2ccccc2N1C	–	> 100	–	> 100	–	> 100	–	> 100	–	> 100	–	> 100	–	> 100	–	> 100
CC(=O)[C@H]1CCC/C=C/[C@@H]2C[C@H](O)C[C@H]2[C@H](O)/C=C/C(=O)O1	0.393 µM	5.01	4.33	> 100	0.296 µM	> 100	0.193	0.392	2.44 µM	> 100	2.43 µM	> 31.6	0.363 µM	5.81	1.33 µM	5.07
C=CCC(N[C@@H](CO)c1ccccc1)c1cn(C(=O)OCC)c2ccccc12 (stereo partly drawn)	15.8 µM	31.7	20.8	53.9	32.3 µM	> 100	18	36.7	21 µM	40.3	49.1 µM	> 100	29.4 µM	> 100	16.3 µM	31.8
